# Measured values taken from US10882856B2 (BeiGene, Ltd., priority 2017, dated 2021).
# Where a name gives a salt, the structure may show the parent alone.
# Experiments:
# [1] = molecular target: T1, cellular TDO2 in HEK293-TDO2 cells (Homo sapiens, UniProt P48775); assay: 293-TDO2 cell-based assay (Kyn colorimetric); details: 48 hours of incubation
# T1 construct: expressed in transfected cells; host or cells: HEK293 (ATCC), stably transfected
# Outline: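 Kyn formed from L-Trp was read colorimetrically at 480 nm (TCA deproteinisation, then 2% 4-(dimethylamino)benzaldehyde). Compounds were added to 293-TDO2 cells 4 h post-seeding and left 48 h at 37° C. A four-parameter logistic model gave IC50 values.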
# IDO1 [2] = molecular target: T2, IDO1 (Homo sapiens, UniProt P14902); assay: Hela cell-based IDO1 assay; details: Hela cells
# Outline: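 HeLa cells were seeded at 8000 per well in 96-well plates in phenol red-free DMEM with 10% FBS. After 4 hours, DMSO-diluted compound dilutions were added with IFN-γ (final 100 ng/mL) and 0.4 mM L-Trp, and cells were kept 48 hours at 37 °C, 5% CO2. Supernatant was deproteinised with trichloroacetic acid, and kynurenine was measured at 480 nm after adding 2% 4-(dimethylamino)benzaldehyde. Potency came from four-parameter logistic fits in XLfit.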
# IDO1 [3] = molecular target: T2, IDO1; assay: IDO1 enzymatic assay; format: biochemical; design: His tag (N); made in house; host or cells: E. coli; details: read-out: Enzyme IC50 IDO1
# Outline: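 Compound was incubated with 50 nM His-tagged IDO1 from E. coli, 1.3 mM D-tryptophan, 5 mM L-ascorbic acid, methylene blue and 0.4 mg/mL catalase in 50 mM potassium phosphate pH 7.5, 0.1% BSA, at 24 °C for 1.5 hours. Activity was the slope of N'-formylkynurenine formation read continuously at 321 nm for 1 hour. IC50 was obtained from remaining activity versus compound concentration.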
# T1 sequence (P48775 whole entry): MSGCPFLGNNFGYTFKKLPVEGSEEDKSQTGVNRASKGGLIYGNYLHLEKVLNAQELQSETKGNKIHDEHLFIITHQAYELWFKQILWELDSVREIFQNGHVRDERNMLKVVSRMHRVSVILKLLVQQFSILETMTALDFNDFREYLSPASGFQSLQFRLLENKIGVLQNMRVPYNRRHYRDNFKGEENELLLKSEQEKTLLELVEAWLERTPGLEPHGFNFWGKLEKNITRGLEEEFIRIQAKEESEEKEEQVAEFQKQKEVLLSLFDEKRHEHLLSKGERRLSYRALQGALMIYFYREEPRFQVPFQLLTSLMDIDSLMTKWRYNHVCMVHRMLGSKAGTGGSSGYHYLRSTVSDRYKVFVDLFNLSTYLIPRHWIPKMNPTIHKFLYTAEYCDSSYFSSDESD
# T2 sequence (P14902 whole entry): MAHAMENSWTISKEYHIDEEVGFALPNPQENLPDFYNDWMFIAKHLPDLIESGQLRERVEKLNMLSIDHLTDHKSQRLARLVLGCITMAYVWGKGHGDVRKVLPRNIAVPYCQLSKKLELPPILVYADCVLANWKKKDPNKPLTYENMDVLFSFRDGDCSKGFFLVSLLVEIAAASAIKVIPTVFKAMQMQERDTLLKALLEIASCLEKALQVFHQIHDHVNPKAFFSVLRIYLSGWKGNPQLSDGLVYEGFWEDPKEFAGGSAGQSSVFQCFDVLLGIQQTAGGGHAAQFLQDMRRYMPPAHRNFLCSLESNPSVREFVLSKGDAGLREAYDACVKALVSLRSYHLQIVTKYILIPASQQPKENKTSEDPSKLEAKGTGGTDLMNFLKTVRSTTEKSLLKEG
smiles,measurement,setting,value
"COc1ccc([C@H]2CC[C@H](C(O)c3c(C4CC4)ccc4cncn34)CC2)cc1Cl (single isomer, unassigned) [Example D148a, hydrochloride]",EC50,[1],> 10 µM
same,EC50,IDO1 [2],0.08 µM
same,IC50,IDO1 [3],0.017 µM
"COc1ccc([C@H]2CC[C@H](C(O)c3c(C4CC4)ccc4cncn34)CC2)cc1Cl (single isomer, unassigned) [Example D148b, hydrochloride]",EC50,[1],> 10 µM
same,EC50,IDO1 [2],7.01 µM
same,IC50,IDO1 [3],> 10 µM
"O[C@H](c1c(C2CC2)ccc2cncn12)[C@H]1CC[C@H](c2ccnc3ccc(F)cc32)CC1 (single isomer, unassigned) [Example D150a]",EC50,[1],> 10 µM
same,EC50,IDO1 [2],0.018 µM
same,IC50,IDO1 [3],0.016 µM
"O[C@@H](c1c(C2CC2)ccc2cncn12)[C@H]1CC[C@H](c2ccnc3ccc(F)cc32)CC1 (single isomer, unassigned) [Example D150b]",EC50,[1],> 10 µM
same,EC50,IDO1 [2],1.1 µM
same,IC50,IDO1 [3],1.4 µM
"OC(c1c(C2CC2)ccc2cncn12)[C@H]1CC[C@H](c2csc3ccccc32)CC1 (single isomer, unassigned) [Example D155a]",EC50,[1],> 10 µM
same,EC50,IDO1 [2],0.027 µM
same,IC50,IDO1 [3],0.028 µM
"O[C@@H](c1c(C2CC2)ccc2cncn12)C1CCC(c2csc3ccccc23)CC1 (single isomer, unassigned) [Example D155b]",EC50,[1],> 10 µM
same,EC50,IDO1 [2],5.63 µM
same,IC50,IDO1 [3],9 µM
"O[C@@H](c1c(C2CC2)ccc2cncn12)[C@H]1CC[C@H](c2cccc(F)c2)CC1 (single isomer, unassigned) [Example D156b]",EC50,[1],> 10 µM
same,EC50,IDO1 [2],6.99 µM
same,IC50,IDO1 [3],> 10 µM
"O[C@H](c1c(C2CC2)ccc2cncn12)[C@H]1CC[C@H](c2ccc3ncccc3c2)CC1 (single isomer, unassigned) [Example D157a]",EC50,[1],> 10 µM
same,EC50,IDO1 [2],0.052 µM
same,IC50,IDO1 [3],0.015 µM
"O[C@@H](c1c(C2CC2)ccc2cncn12)[C@H]1CC[C@H](c2ccc3ncccc3c2)CC1 (single isomer, unassigned) [Example D157b]",EC50,[1],> 10 µM
same,EC50,IDO1 [2],> 10 µM
same,IC50,IDO1 [3],> 10 µM
"CC(C)c1ccc2cncn2c1[C@@H](O)[C@H]1CC[C@H](c2ccc(F)cc2)CC1 (single isomer, unassigned) [Example D166a]",EC50,[1],> 10 µM
same,EC50,IDO1 [2],0.014 µM
same,IC50,IDO1 [3],0.026 µM
"CC(C)c1ccc2cncn2c1[C@H](O)[C@H]1CC[C@H](c2ccc(F)cc2)CC1 (single isomer, unassigned) [Example D166b]",EC50,[1],> 10 µM
same,EC50,IDO1 [2],5.21 µM
same,IC50,IDO1 [3],> 10 µM
"CC(C)c1ccc2cncn2c1[C@@H](O)[C@H]1CC[C@H](c2cccc(F)c2)CC1 (single isomer, unassigned) [Example D167a]",EC50,[1],> 10 µM
same,EC50,IDO1 [2],0.015 µM
same,IC50,IDO1 [3],0.018 µM
"CC(C)c1ccc2cncn2c1[C@H](O)[C@H]1CC[C@H](c2cccc(F)c2)CC1 (single isomer, unassigned) [Example D167b]",EC50,[1],> 10 µM
same,EC50,IDO1 [2],2.79 µM
same,IC50,IDO1 [3],9.8 µM
"CC(C)c1ccc2cncn2c1[C@@H](O)[C@H]1CC[C@H](c2cccc(Cl)c2)CC1 (single isomer, unassigned) [Example D168a]",EC50,[1],> 10 µM
same,EC50,IDO1 [2],0.025 µM
same,IC50,IDO1 [3],0.017 µM
"CC(C)c1ccc2cncn2c1[C@H](O)[C@H]1CC[C@H](c2cccc(Cl)c2)CC1 (single isomer, unassigned) [Example D168b]",EC50,[1],> 10 µM
same,EC50,IDO1 [2],6.47 µM
same,IC50,IDO1 [3],> 10 µM
"COc1cccc([C@H]2CC[C@H]([C@H](O)c3c(C(C)C)ccc4cncn34)CC2)c1 (single isomer, unassigned) [Example D169a]",EC50,[1],> 10 µM
same,EC50,IDO1 [2],0.014 µM
same,IC50,IDO1 [3],0.015 µM
"COc1cccc([C@H]2CC[C@H]([C@@H](O)c3c(C(C)C)ccc4cncn34)CC2)c1 (single isomer, unassigned) [Example D169b]",EC50,[1],> 10 µM
same,EC50,IDO1 [2],5.95 µM
same,IC50,IDO1 [3],7.5 µM
"O[C@@H](c1c(C2CC2)ccc2cncn12)C1CCN(c2ccccc2)CC1 (single isomer, unassigned) [Example D170b]",EC50,[1],> 10 µM
same,EC50,IDO1 [2],7.94 µM
same,IC50,IDO1 [3],8.82 µM
"O[C@H](c1c(C2CC2)ccc2cncn12)C1CCN(c2ccc(F)cc2)CC1 (single isomer, unassigned) [Example D171a]",EC50,[1],> 10 µM
same,EC50,IDO1 [2],0.03 µM
same,IC50,IDO1 [3],0.015 µM
"O[C@@H](c1c(C2CC2)ccc2cncn12)C1CCN(c2ccc(F)cc2)CC1 (single isomer, unassigned) [Example D171b]",EC50,[1],> 10 µM
same,EC50,IDO1 [2],5.74 µM
same,IC50,IDO1 [3],8.26 µM
"O[C@H](c1c(C2CC2)ccc2cncn12)C1CCN(c2cccc(Cl)c2)CC1 (single isomer, unassigned) [Example D173a]",EC50,[1],> 10 µM
same,EC50,IDO1 [2],0.033 µM
same,IC50,IDO1 [3],0.018 µM
"O[C@@H](c1c(C2CC2)ccc2cncn12)C1CCN(c2cccc(Cl)c2)CC1 (single isomer, unassigned) [Example D173b]",EC50,[1],> 10 µM
same,EC50,IDO1 [2],7.39 µM
same,IC50,IDO1 [3],2.7 µM
"O[C@H](c1c(C2CC2)ccc2cncn12)C1CCN(c2ccc(Cl)cc2)CC1 (single isomer, unassigned) [Example D174a]",EC50,[1],> 10 µM
same,EC50,IDO1 [2],0.08 µM
same,IC50,IDO1 [3],0.015 µM
"O[C@@H](c1c(C2CC2)ccc2cncn12)C1CCN(c2ccc(Cl)cc2)CC1 (single isomer, unassigned) [Example D174b]",EC50,[1],> 10 µM
same,EC50,IDO1 [2],5.5 µM
same,IC50,IDO1 [3],> 10 µM
"O[C@H](c1c(C2CC2)ccc2cncn12)C1CCN(c2ccc(F)c3ncccc23)CC1 (single isomer, unassigned) [Example D175a]",EC50,[1],> 10 µM
same,EC50,IDO1 [2],0.0077 µM
same,IC50,IDO1 [3],0.012 µM
"O[C@@H](c1c(C2CC2)ccc2cncn12)C1CCN(c2ccc(F)c3ncccc23)CC1 (single isomer, unassigned) [Example D175b]",EC50,[1],> 10 µM
same,EC50,IDO1 [2],0.407 µM
same,IC50,IDO1 [3],0.74 µM
"O[C@@H](c1c(C2CC2)ccc2cncn12)C1CCN(c2ccc(Cl)c3ncccc23)CC1 (single isomer, unassigned) [Example D178b]",EC50,[1],> 10 µM
same,EC50,IDO1 [2],1.47 µM
same,IC50,IDO1 [3],2.3 µM
"O[C@@H](c1cc(Cl)cc2cncn12)[C@H]1CC[C@H](c2ccc(Cl)cc2)CC1 (single isomer, unassigned) [Example E101b]",EC50,[1],> 10 µM
same,EC50,IDO1 [2],> 10 µM
same,IC50,IDO1 [3],2.8 µM
"O[C@@H](c1cc(Cl)cc2cncn12)[C@H]1CC[C@H](c2cccc3ccccc32)CC1 (single isomer, unassigned) [Example E103b]",EC50,[1],> 10 µM
same,EC50,IDO1 [2],> 10 µM
same,IC50,IDO1 [3],1.4 µM
"O[C@H](c1cc(Cl)cc2cncn12)[C@H]1CC[C@H](c2ccc3ccccc3c2)CC1 (single isomer, unassigned) [Example E104a]",EC50,[1],> 10 µM
same,EC50,IDO1 [2],3.7 µM
same,IC50,IDO1 [3],0.029 µM
"COc1ccc([C@H]2CC[C@H]([C@@H](O)c3c(C4CC4)ccn4cncc34)CC2)cc1 [Example C101b, (R)-(7-cyclopropylimidazo[1,5-a]pyridin-8-yl)(4-(4-methoxyphenyl)cyclohexyl)methanol]",EC50,[1],> 10 µM
same,EC50,IDO1 [2],> 10 µM
same,IC50,IDO1 [3],9.4 µM
"Cc1ccccc1C1CCC(C(O)c2c(C3CC3)ccn3cncc23)CC1 (stereo not drawn) [Example C112, (7-cyclopropylimidazo[1,5-a]pyridin-8-yl)(4-(o-tolyl)cyclohexyl)methanol]",EC50,[1],> 10 µM
same,EC50,IDO1 [2],0.285 µM
same,IC50,IDO1 [3],0.092 µM
